Measured values from US20240425523A1, “Compounds for the Degradation of EGFR Kinase” (Beigene Switzerland GMBH, priority 2023, published 2024).

Columns and labels:
Assay type in all cases: cell-based
[1] = target: p-EGFR Del19/C797S (H1975-clone #23 cells) (Homo sapiens, UniProt P00533); assay: Cell p-EGFR inhibition assay, HTRF, H1975-clone#23 (DEL19/C797S) cells; details: 16 h treatment; for Imax (%): maximum percentage of pEGFR inhibition; for IC50: pEGFR inhibition
How it was run: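 Phospho-EGFR read by overnight HTRF on lysates, normalized to DMSO-treated high control; IC50, Hill slope and Imax fitted. Compounds were applied for 16 h (10 uM top, 5-fold steps, 8 doses) to an H1975 single clone carrying only exogenous Del19/C797S EGFR after sgRNA knockout of endogenous copies.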

[2] = target: T1, EGFR L858R (BaF3-L858R cells) (Homo sapiens, UniProt P00533, L858R); assay: Cell degradation of EGFR, HTRF assay, BaF3-L858R cells; details: 16 h treatment; for DC50: EGFR degradation; for Dmax: maximum percentage of degradation
T1 construct: host or cells: BaF3
How it was run: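 EGFR L858R levels measured by HTRF antibody pair in lysed BaF3-L858R cells after 16 h compound exposure (8-point 5-fold series from 10 uM final, 37° C). Degradation is relative to DMSO-only cells; DC50 fitted with Hill equation, Dmax taken as the largest percent loss.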

[3] = target: T2, p-EGFR L858R (BaF3-L858R cells) (Homo sapiens, UniProt P00533, L858R); assay: Cell p-EGFR inhibition assay, HTRF, BaF3-L858R cells; details: 16 h treatment; for Imax (%): maximum percentage of pEGFR inhibition; for IC50: pEGFR inhibition
T2 construct: host or cells: BaF3
How it was run: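 BaF3-L858R cells treated 16 h at 37 °C, 5% CO2 with compound from 10 uM top, 5-fold dilutions, 8 doses, in 0.1% DMSO medium. Lysates read overnight by HTRF p-EGFR antibodies; IC50 fitted to four-parameter curve against DMSO high control.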

[4] = target: T3, EGFR-L858R/C797S (H1975-clone #8 cells) (Homo sapiens, UniProt P00533, C797S/L858R); assay: Cell degradation of EGFR, HTRF assay, H1975-clone#8 (L858R/C797S) cells; details: 16 h treatment; for DC50: EGFR degradation; for Dmax: maximum percentage of degradation
T3 construct: expressed in transfected cells; host or cells: H1975 (endogenous EGFR knocked out, clone #8)

Row | SMILES | Imax (%) [1] | IC50 [1] | DC50 [2] | Dmax [2] | Imax (%) [3] | IC50 [3] | DC50 [4] | Dmax [4]
1 | COC[C@H]1CN(c2ccc3c(c2)N2C[C@@H]4CC[C@H](COc5c(cnn5C)-c5cc(cc(C)n5)C(=O)/N=C/2N3)C4)CCN1C1CN(C2CCN(c3cc(F)c([C@H]4CCC(=O)NC4=O)c(F)c3)CC2)C1 [Example 208, (R)-3-(4-(4-(3-((R)-4-((7^1R,7^3S,E)-1^1,2^6-dimethyl-3-oxo-5^2,5^3-dihydro-1^1H,5^1H-9-oxa-4-aza-5(2,1)-benzo[d]imidazola-2(2,4)-pyridina-1(4,5)-pyrazola-7(1,3)-cyclopentanacyclononaphane-5^6-yl)-2-(methoxymethyl)piperazin-1-yl)azetidin-1-yl)piperidin-1-yl)-2,6-difluorophenyl)piperidine-2,6-dione] | 99.76% | 3.02 nM | 0.67 nM | 91.6% | 91.5% | 1.21 nM | 1.01 nM | 70.7%
2 | COCCn1nc(C)c2c1OC[C@H]1CC[C@H](C1)CN1/C(=N/C(=O)c3cc(C)nc-2c3)Nc2ccc(N3CCN(C4CCN(c5cc(F)c([C@H]6CCC(=O)NC6=O)c(F)c5)CC4)CC3)cc21 [Example 161, (R)-3-(2,6-difluoro-4-(4-(4-((7^1R,7^3S,E)-1^1-(2-methoxyethyl)-1^3,2^6-dimethyl-3-oxo-5^2,5^3-dihydro-1^1H,5^1H-9-oxa-4-aza-5(2,1)-benzo[d]imidazola-2(2,4)-pyridina-1(4,5)-pyrazola-7(1,3)-cyclopentanacyclononaphane-5^6-yl)piperazin-1-yl)piperidin-1-yl)phenyl)piperidine-2,6-dione] | 95.04% | 0.49 nM | 7.2 nM | 91.4% | 93.23% | 4.51 nM | 2.96 nM | 89.3%
3 | CC[C@@H]1CN(c2ccc3c(c2)N2C[C@@H]4CC[C@H](COc5c(c(C)nn5C)-c5cc(cc(C)n5)C(=O)/N=C/2N3)C4)CCN1C1CCN(c2cc(F)c([C@H]3CCC(=O)NC3=O)c(F)c2)CC1 [Example 188, (R)-3-(4-(4-((R)-2-ethyl-4-((7^1R,7^3S,E)-1^1,1^3,2^6-trimethyl-3-oxo-5^2,5^3-dihydro-1^1H,5^1H-9-oxa-4-aza-5(2,1)-benzo[d]imidazola-2(2,4)-pyridina-1(4,5)-pyrazola-7(1,3)-cyclopentanacyclononaphane-5^6-yl)piperazin-1-yl)piperidin-1-yl)-2,6-difluorophenyl)piperidine-2,6-dione] | 99.79% | 1.95 nM | 4.2 nM | 93.2% | 90.67% | < 0.128 nM | 3.78 nM | 84.9%
4 | Cc1cc2cc(n1)-c1c(C(F)F)nn(C)c1OC[C@H]1CCC(C1)CN1/C(=N/C2=O)Nc2ccc(N3CCN(C4CCN(c5c(F)cc(NC6CCC(=O)NC6=O)cc5F)CC4)CC3)cc21 (some centres unmarked) [Example 99, 3-((4-(4-(4-((7^1R,7^3S,E)-1^3-(difluoromethyl)-1^1,2^6-dimethyl-3-oxo-5^2,5^3-dihydro-1^1H,5^1H-9-oxa-4-aza-5(2,1)-benzo[d]imidazola-2(2,4)-pyridina-1(4,5)-pyrazola-7(1,3)-cyclopentanacyclononaphane-5^6-yl)piperazin-1-yl)piperidin-1-yl)-3,5-difluorophenyl)amino)piperidine-2,6-dione] | 99.2% | 2.2 nM | 1.06 nM | 82.3% | 100.3% | 8 nM | 6 nM | 85.6%

More lines, now with the values ahead:

Row | Imax (%) [1] | IC50 [1] | DC50 [2] | Dmax [2] | Imax (%) [3] | IC50 [3] | DC50 [4] | Dmax [4] | SMILES
5 | 101.2% | 0.8 nM | 3.37 nM | 71.6% | 99.6% | 6.1 nM | 0.83 nM | 73.9% | Cc1cc2cc(n1)-c1cnn(C)c1OC[C@H]1CCC(C1)CN1/C(=N/C2=O)Nc2ccc(N3CCN(C4CCN(c5cc(F)c([C@H]6CCC(=O)NC6=O)c(F)c5)CC4)C[C@@H]3CO)cc21 [Example 94, (R)-3-(4-(4-((R)-4-((7^1R,7^3S,E)-1^1,2^6-dimethyl-3-oxo-5^2,5^3-dihydro-1^1H,5^1H-9-oxa-4-aza-5(2,1)-benzo[d]imidazola-2(2,4)-pyridina-1(4,5)-pyrazola-7(1,3)-cyclopentanacyclononaphane-5^6-yl)-3-(hydroxymethyl)piperazin-1-yl)piperidin-1-yl)-2,6-difluorophenyl)piperidine-2,6-dione]
6 | 103.49% | 3.38 nM | 8.79 nM | 74% | 101.23% | 9.16 nM | 7.24 nM | 89.7% | Cc1cc2cc(n1)-c1c(C)nn(C)c1OC[C@H]1CC[C@H](C1)CN1/C(=N/C2=O)Nc2ccc(N3C[C@H](C)N(C4CCN(c5cc(F)c([C@H]6CCC(=O)NC6=O)c(F)c5)CC4)C[C@@H]3C)cc21 [Example 197, (R)-3-(4-(4-((2S,5S)-2,5-dimethyl-4-((7^1R,7^3S,E)-1^1,1^3,2^6-trimethyl-3-oxo-5^2,5^3-dihydro-1^1H,5^1H-9-oxa-4-aza-5(2,1)-benzo[d]imidazola-2(2,4)-pyridina-1(4,5)-pyrazola-7(1,3)-cyclopentanacyclononaphane-5^6-yl)piperazin-1-yl)piperidin-1-yl)-2,6-difluorophenyl)piperidine-2,6-dione]
7 | 99.1% | 1.1 nM | 3.14 nM | 70.8% | 94.2% | 15.6 nM | 0.55 nM | 65.7% | Cc1cc2cc(n1)-c1cnn(C)c1OC[C@H]1CCC(C1)CN1/C(=N/C2=O)Nc2ccc(N3CCC4(CC3)CN(C3CCN(c5cc(F)c([C@H]6CCC(=O)NC6=O)c(F)c5)CC3)C4)cc21 [Example 120, (R)-3-(4-(4-(7-((7^1R,7^3S,E)-1^1,2^6-dimethyl-3-oxo-5^2,5^3-dihydro-1^1H,5^1H-9-oxa-4-aza-5(2,1)-benzo[d]imidazola-2(2,4)-pyridina-1(4,5)-pyrazola-7(1,3)-cyclopentanacyclononaphane-5^6-yl)-2,7-diazaspiro[3.5]nonan-2-yl)piperidin-1-yl)-2,6-difluorophenyl)piperidine-2,6-dione]
8 | 101.2% | 0.7 nM | 1.07 nM | 83.3% | 101.9% | 3.2 nM | 1.87 nM | 70% | COC[C@H]1CN(c2ccc3c(c2)N2C[C@@H]4CC[C@H](COc5c(cnn5C)-c5cc(cc(C)n5)C(=O)/N=C/2N3)C4)CCN1C1CCN(c2cc(F)c([C@H]3CCC(=O)NC3=O)c(F)c2)CC1 [Example 64, (R)-3-(4-(4-((R)-4-((7^1R,7^3S,E)-1^1,2^6-dimethyl-3-oxo-5^2,5^3-dihydro-1^1H,5^1H-9-oxa-4-aza-5(2,1)-benzo[d]imidazola-2(2,4)-pyridina-1(4,5)-pyrazola-7(1,3)-cyclopentanacyclononaphane-5^6-yl)-2-(methoxymethyl)piperazin-1-yl)piperidin-1-yl)-2,6-difluorophenyl)piperidine-2,6-dione]
9 | 94.62% | 1.34 nM | 3.32 nM | 91.1% | 93.3% | 4.83 nM | 4.45 nM | 88.7% | COC[C@H]1CN(c2cc3c(cc2F)N/C2=N\C(=O)c4cc(C)nc(c4)-c4c(C)nn(C)c4OC[C@H]4CC[C@H](C4)CN23)CCN1C1CCN(c2cc(F)c([C@H]3CCC(=O)NC3=O)c(F)c2)CC1 [Example 165, (R)-3-(2,6-difluoro-4-(4-((R)-4-((7^1R,7^3S,E)-5^5-fluoro-1^1,1^3,2^6-trimethyl-3-oxo-5^2,5^3-dihydro-1^1H,5^1H-9-oxa-4-aza-5(2,1)-benzo[d]imidazola-2(2,4)-pyridina-1(4,5)-pyrazola-7(1,3)-cyclopentanacyclononaphane-5^6-yl)-2-(methoxymethyl)piperazin-1-yl)piperidin-1-yl)phenyl)piperidine-2,6-dione]
10 | 101.1% | 0.6 nM | 1.6 nM | 82.7% | 92.6% | 7.9 nM | 0.97 nM | 61.3% | Cc1cc2cc(n1)-c1cnn(C)c1OC[C@H]1CCC(C1)CN1/C(=N/C2=O)Nc2ccc(N3CCN(C4CCN(c5cc(F)c([C@H]6CCC(=O)NC6=O)c(F)c5)CC4)[C@@H](CO)C3)cc21 [Example 75, (R)-3-(4-(4-((R)-4-((7^1R,7^3S,E)-1^1,2^6-dimethyl-3-oxo-5^2,5^3-dihydro-1^1H,5^1H-9-oxa-4-aza-5(2,1)-benzo[d]imidazola-2(2,4)-pyridina-1(4,5)-pyrazola-7(1,3)-cyclopentanacyclononaphane-5^6-yl)-2-(hydroxymethyl)piperazin-1-yl)piperidin-1-yl)-2,6-difluorophenyl)piperidine-2,6-dione]
